Data reported in US7109203B2, “Sulfonamide derivatives” (Novartis AG, priority 2001, dated 2006).
Where a SMILES comes first, the peptide text is derived from it. [ ]: non-standard residue; d: D form. Oic = O=C(O)[C@@H]1C[C@@H]2CCCC[C@@H]2N1; Hyp = O=C(O)[C@@H]1C[C@@H](O)CN1; dTic = O=C(O)[C@H]1Cc2ccccc2CN1; 2Thi = N[C@@H](Cc1cccs1)C(=O)O

Molecular target: T1, human bradykinin B1 receptor (Homo sapiens, UniProt P46663)
T1 construct: To upregulate expression of the B1 receptor the cells are treated with 100 units/ml of IL-1β; endogenous in cells; host or cells: WI-38 cells treated with 100 units/ml IL-1β for 3 hours
T1 sequence (P46663 1-353): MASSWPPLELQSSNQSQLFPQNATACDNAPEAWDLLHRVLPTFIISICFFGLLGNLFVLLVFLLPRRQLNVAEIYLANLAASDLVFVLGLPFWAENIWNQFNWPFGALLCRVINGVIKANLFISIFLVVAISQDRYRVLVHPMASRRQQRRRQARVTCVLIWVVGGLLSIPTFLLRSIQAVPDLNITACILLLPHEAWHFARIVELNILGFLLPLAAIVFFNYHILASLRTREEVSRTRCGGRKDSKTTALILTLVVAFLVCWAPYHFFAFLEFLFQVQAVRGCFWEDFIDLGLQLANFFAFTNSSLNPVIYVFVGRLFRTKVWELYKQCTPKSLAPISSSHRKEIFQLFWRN
Assay: Test I: Bradykinin Receptor Binding Assay ([3H]-desArg10kallidin displacement, IL-1β-treated WI-38 cells)
Conditions: displacement of [3H]-desArg10kallidin, KI from IC50 by Cheng-Prussoff equation
Experimental: WI-38 cells are grown in Dulbecco's Modified Eagle Medium s supplemented with 1% non-essential amino acids, 2 mM L-glutamine, 100 IU/ml penicillin, 100 μg/ml streptomycin and 10% foetal calf serum. The cells are grown in 175 cm^2 tissue culture flasks and split approximately 1–2 times a week at a ratio of 1:2 using trypsin to detach the cells. WI-38 cells are plated onto 24 well plates at approximately 50,000 cells per well and grown overnight. To upregulate expression of the B1 receptor the cells are treated with 100 units/ml of IL-1β for 3 hours prior to the assay. The binding buffer is 10 mM HEPES in Hank's Balanced Salt solution pH 7.4 plus 1 mM phenanthroline and 0.14 mg/ml bacitracin. […] Non-specific binding is determined with 3 μM desArg^10kallidin. […] The cells are solubilised with 0.2% SDS and the amount of radioactivity in the samples determined by liquid scintillation counting. […]
Results are calculated by subtracting the value for non-specific binding from all values and calculating the amount of binding for each concentration of compound as a percentage of the specific binding with no compound. The IC50 values are calculated in ORIGIN using a logistic fit. KI values are calculated from the IC50 values using the Cheng-Prussoff equation (KI=IC50/(1+([RL]/Kd)) where [RL] is the radioligand concentration.

Structure (SMILES)	Ki
O=C(O)CN(CCOc1ccc2c(c1)CCC2)S(=O)(=O)c1ccc(Br)cc1Cl [Example 5, {(4-bromo-2-chloro-benzenesulfonyl)-[2-(indan-5-yloxy)-ethyl]-amino}-acetic acid]	~300 nM
N=C(N)NCCC[C@@H](N)C(=O)N[C@@H](CCCNC(=N)N)C(=O)N1CCC[C@H]1C(=O)N1C[C@H](O)C[C@H]1C(=O)NCC(=O)N[C@@H](Cc1cccs1)C(=O)N[C@@H](CO)C(=O)N1Cc2ccccc2C[C@@H]1C(=O)N1[C@H](C(=O)O)C[C@@H]2CCCC[C@@H]21 [desArg^10HOE140, D-Arg-[Hyp^3, Thi^5, D-Tic^7, Oic^8]desArg^9 bradykinin] (H-[dR]RP[Hyp]G[2Thi]S[dTic][Oic]-OH; N-terminus and C-terminus assumed)	63 nM
